The source of these data is PMC11798738, “Targeting ASK1 by CS17919 alleviates kidney‐ and liver‐related diseases in murine models” (Animal Models and Experimental Medicine, 2024).

Marks after values point to notes of the source that are not given here.

In one data set the test system is DKD mouse model. Put plainly: STZ + HFD-induced DKD mouse model. It is filed as in vivo, mice. The conditions noted are these: 50 mg/kg gavage twice a day, ten weeks. As to the method:
26 male neonatal mice were purchased from Chengdu Pharmachem Biotechnology Co., 5 of which were assigned to the control group and fed a chow diet. The other 21 mice were subcutaneously injected with STZ ([…]) 48 h after birth. After 4 weeks, these mice were fed a high‐fat diet (HFD, Research Diet, New Brunswick, NJ, USA) and randomly subdivided into two groups based on blood glucose level followed by 6 h of fasting: Model (n = 11) and CS17919 (n = 10). Both the control and model groups were given the solvent mentioned above, administered orally twice a day, while CS17919 was administered twice a day by gavage at a dose of 50 mg/kg for 70 days. Body weight measurements were performed twice a week during the administration period. 24‐h urine was collected for each mouse 2 days before sacrifice. Creatinine clearance was calculated using the following formula: creatinine clearance = urinary creatinine (mg/dL) × urine volume per minute (ml/min)/blood creatinine (mg/dL). Fasting blood glucose was measured before sacrifice. After a 10‐week drug intervention, mice were sacrificed, and blood was collected to isolate serum for the urea nitrogen and serum creatinine test. The kidneys of each mouse were then removed, weighed and fixed in 10% formalin solution for pathological study.
PAS staining was applied to determine kidney glomerular sclerosis in the DKD model. Thin 4 μm paraffin sections of each sample were used in this study, which followed the standard procedure. Periodic acid‐treated paraffin sections were stained using Schiff for 10 min, after rinsing the residual acid. Hematoxylin staining was performed for 3 min, and the samples were then dehydrated and sealed. The PAS score was calculated by semiquantitative analysis as follows: 0, without sclerosis; 1, 1%–25% sclerosis area; 2, 26%–50% sclerosis area; 3, 51%–75% sclerosis area; 4, >75% sclerosis area.

For the next data set, the system named is HUH7. Put plainly: MTS cytotoxicity assay, HUH7. It counts as cell-based, human. As to conditions: 72 h. As to the method: (§1) Human embryonic kidney cells (HEK‐293A), human hepatocellular carcinoma cells (HUH7), human embryonic liver diploid cells (CCC‐HEL‐1) and human embryonic lung cells (MRC‐5) were selected for the cytotoxicity study of both drugs, using the MTS assay protocol. Cells were cultured at 37°C with 5% CO2 using an appropriate medium. […] After 72 h of incubation, 30 μL of MTS solution was added to each well, and the cells were then incubated for 2–4 h in the dark. The absorbance value of each well at 490 nm was measured using an enzymatic plate reader and the IC50 for each drug and each cell line was calculated. Cell viability and cytoxicity experiments were repeated three times.

Another data set concerns the target human ASK1 kinase (Homo sapiens, UniProt Q99683). Put plainly: ASK1 kinase inhibition, HTRF assay. As to conditions: read-out: IC50, inhibition of ASK1, full-length recombinant human ASK1.
In a further data set the test system is MRC‐5. As to the kind of experiment: MTS cytotoxicity assay, MRC-5. It is filed as cell-based, human. As to conditions: 72 h. As for the experimental part:
as §1
(Tetrazolium assays rely on reduction of a dye to a coloured formazan, in cell work by metabolically active cells.)

The subject of the next data set is NASH mouse model. As to the kind of experiment: CCL4- and HFD-induced NASH mouse model. It is filed as in vivo, C57BL/6J mice. The conditions noted are these: CS17919 20 mg/kg. As to the method:
41 C57BL/6J mice, male, 6–8 weeks of age, were purchased from Chengdu Dossy Experimental Animal Co. (Chengdu, China), 9 of which were assigned in the control group and fed a chow diet. The other 32 mice were fed a HFD (D12429, Research diet, USA). After 8 weeks of feeding, these mice with HFD were subcutaneously injected with CCL4 (0.1 mL/kg) twice a week. These mice were then randomly subdivided into 4 groups according to serum ALT and AST at week 12: Model (n = 8), CS17919 (n = 8), CS27109 (n = 8), and Combination (n = 8). Both the control and model groups were given the solvent mentioned above, administered orally twice a day, while CS17919 was administered twice a day by gavage at a dose of 20 mg/kg and CS27109 was administered twice a day by gavage at a dose of 10 mg/kg for 4 weeks. The body weight of each mouse was measured every 3 days during the drug intervention. All animals were fasted overnight after the last drug administration and blood was collected to isolate serum for biochemical tests including AST, ALT, TG, TC, HDL‐c, and LDL‐c. The liver of each mouse was removed, the right lobe of which was fixed in 10% formalin solution for pathological study.
H&E staining was applied to determine scores for liver steatosis, ballooning and inflammation in the NASH model. Thin 4 μm paraffin sections of each sample were used to assess liver histology, following a standard protocol. Paraffin sections were deparaffinized and placed in Hematoxylin staining solution for 3–8 min before using tap water to elute excess Hematoxylin. Sections were stained in Eosin stain for about 1–3 min and rinsed with tap water. Finally, the slices were dehydrated and sealed. Score ranges were 0–3 for liver steatosis, 0–2 for ballooning and 0–12 for inflammation (which included scores of 0–3 for portal inflammation, 0–3 for lobular inflammation, 0–3 for piecemeal necrosis, and 0–3 for bridging necrosis).
Sirius Red staining was applied to determine liver fibrosis in the NASH model. Thin 4 μm paraffin sections of each sample were used in this study followed the standard procedure. Sections were first stained with Hematoxylin for 5–10 min, then washed and stained with Sirius Red stain about 15–30 min. Finally, the sections were rinsed and sealed. Image‐Pro Plus 6.0 was used for analyzing the area of liver fibrosis and the percentage of the fibrosis area in each section was calculated.

The next data set concerns the target CYP 2C9 (Homo sapiens, UniProt P11712). Put plainly: CYP inhibition in vitro. It counts as in vitro ADME.
A further data set concerns L02 cells. Put plainly: Effects of the drugs on L02 cells (Figure S1C). As to conditions: 0.3–10 μmol/L. It is filed as cell-based, human. As to the method:
FIGURE S1 (A) Chemical structural formulae of CS17919 and GS-4997. (B) Viability of L02 cells 72 h after 25–800 μmol/L (2-fold dilution) PA stimulation. (C) The effects of CS17919 and GS-4997 at different doses (0.3–10 μmol/L) on L02 cells. (D) Kidney weights in the UUO model. (E) Renal coefficients in the DKD model. (F) Urine ALB in the DKD model. (G) Liver weights in the NASH model. *: PA vs. Blank; GS-4997 vs. DMSO; Treatment vs. Model. #: CS17919 vs. DMSO; Control vs. Model. * p < 0.05, ## p < 0.01, *** p < 0.001, #### and **** p < 0.0001 were obtained by one-way ANOVA.

Data set [1] in a line: Metabolic stability in liver microsomes. It counts as in vitro ADME. The conditions noted are these: Human.
Data set [2] is described as follows: Metabolic stability in liver microsomes. As to conditions: Rat. It is filed as in vitro ADME. In general terms: Liver microsomes are a subcellular fraction often used to study metabolism.
Where [3] appears, read: 4 weeks, CS27109 10 mg/kg twice a day.
Where [4] appears, read: serum after 4 weeks, CS27109 10 mg/kg, gavage twice a day, mean ± SD.

human ASK1 kinase, sequence (Q99683 whole entry): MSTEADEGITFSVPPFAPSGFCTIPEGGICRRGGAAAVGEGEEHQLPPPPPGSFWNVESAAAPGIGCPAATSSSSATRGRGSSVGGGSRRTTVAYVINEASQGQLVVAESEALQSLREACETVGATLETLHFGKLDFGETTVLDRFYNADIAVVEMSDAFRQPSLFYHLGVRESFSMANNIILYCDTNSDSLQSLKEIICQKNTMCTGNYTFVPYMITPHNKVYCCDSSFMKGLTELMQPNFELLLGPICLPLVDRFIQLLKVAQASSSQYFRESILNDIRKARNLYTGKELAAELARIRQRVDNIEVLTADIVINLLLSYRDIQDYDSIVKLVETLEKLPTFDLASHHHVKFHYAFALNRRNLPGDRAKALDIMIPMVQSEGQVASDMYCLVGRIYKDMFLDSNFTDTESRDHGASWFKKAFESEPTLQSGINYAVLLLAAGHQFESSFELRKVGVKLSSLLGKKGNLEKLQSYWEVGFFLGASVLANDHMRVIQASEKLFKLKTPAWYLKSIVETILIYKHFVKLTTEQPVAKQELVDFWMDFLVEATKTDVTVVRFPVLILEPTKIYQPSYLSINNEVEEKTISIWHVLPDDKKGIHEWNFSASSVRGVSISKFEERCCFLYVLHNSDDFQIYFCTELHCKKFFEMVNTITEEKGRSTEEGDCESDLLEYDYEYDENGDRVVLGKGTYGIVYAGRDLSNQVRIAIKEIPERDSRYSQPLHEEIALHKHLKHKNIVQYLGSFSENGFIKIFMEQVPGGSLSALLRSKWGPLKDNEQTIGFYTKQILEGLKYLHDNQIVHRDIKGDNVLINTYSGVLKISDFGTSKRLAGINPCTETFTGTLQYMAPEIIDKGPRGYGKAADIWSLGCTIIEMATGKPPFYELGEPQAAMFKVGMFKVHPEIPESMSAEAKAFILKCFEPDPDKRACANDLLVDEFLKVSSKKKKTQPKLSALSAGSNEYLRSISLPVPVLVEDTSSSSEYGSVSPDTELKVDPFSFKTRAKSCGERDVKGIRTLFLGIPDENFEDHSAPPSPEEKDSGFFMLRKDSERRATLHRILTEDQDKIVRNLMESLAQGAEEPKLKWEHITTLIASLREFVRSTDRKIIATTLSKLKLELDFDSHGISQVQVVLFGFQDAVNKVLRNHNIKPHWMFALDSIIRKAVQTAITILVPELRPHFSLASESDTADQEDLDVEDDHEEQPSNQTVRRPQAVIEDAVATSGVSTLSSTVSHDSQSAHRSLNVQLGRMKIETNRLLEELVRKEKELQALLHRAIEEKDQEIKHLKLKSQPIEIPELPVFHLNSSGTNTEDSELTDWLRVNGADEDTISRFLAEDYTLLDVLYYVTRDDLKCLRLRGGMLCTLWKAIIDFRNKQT
CYP 2C9, sequence (P11712 whole entry): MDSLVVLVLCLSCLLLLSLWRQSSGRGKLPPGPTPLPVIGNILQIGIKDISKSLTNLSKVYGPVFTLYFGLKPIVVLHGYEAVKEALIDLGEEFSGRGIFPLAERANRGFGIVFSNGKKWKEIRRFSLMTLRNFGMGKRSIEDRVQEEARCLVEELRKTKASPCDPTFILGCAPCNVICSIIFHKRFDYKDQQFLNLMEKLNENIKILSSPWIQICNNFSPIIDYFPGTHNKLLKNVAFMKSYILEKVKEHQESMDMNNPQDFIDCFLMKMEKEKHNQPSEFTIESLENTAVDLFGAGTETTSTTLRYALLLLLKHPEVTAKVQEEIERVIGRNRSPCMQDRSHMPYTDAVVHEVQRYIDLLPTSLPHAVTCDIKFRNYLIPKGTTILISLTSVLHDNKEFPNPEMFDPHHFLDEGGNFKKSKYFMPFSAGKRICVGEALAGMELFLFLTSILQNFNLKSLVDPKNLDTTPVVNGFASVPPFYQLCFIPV
Excerpt for human ASK1 kinase: Enzymatic activity analysis was repeated three times. IC50 results were obtained using Prism 8.0 (GraphPad Prism Software).

As usually defined, the IC50 is the concentration needed to halve the response being measured. Regarding `Cc1cc(F)c(C(=O)Nc2cccc(-c3nncn3[C@H](C)C(F)(F)F)n2)cc1NC(=O)C1CC1` [CS17919], in the data set with DKD mouse model, the Blood glucose result is recorded as “mildly reduced”, the Body weight entry is on record as “slight weight loss”, the Creatinine clearance entry is “non‐significant tendency to improve” and the “Glomerular sclerosis score (PAS staining) vs model group” value was “significantly reduced”. For the same compound, in the data set with DKD mouse model, the “Insulin sensitivity (serum insulin) vs model group” value is recorded as “slightly increased”, the Renal coefficients entry was “improved”, the Serum creatinine entry is listed as “significantly lowered” and the Serum urea nitrogen entry is listed as “non‐significant tendency to reduce”. The “Cytotoxicity (cell viability)” value in the data set with HUH7 is given as “barely affected cell viability”. Besides, the IC50 on human ASK1 kinase was found to be 22.5 nM. For the same compound, the “Cytotoxicity (cell viability)” value with MRC‐5 is “barely affected cell viability”. Also, in the data set with NASH mouse model (setting [3]), the “Liver fibrosis area (Sirius Red staining)” value is reported as “significantly reduced”; the “Liver inflammation score (H&E)” value is listed as “tended to improve”; the “Liver steatosis and ballooning scores (H&E)” value is recorded as “barely improved”. Further, in the data set with NASH mouse model (setting [4]), the ALT is 120.9 ± 80.3^a U/L, the AST turned out to be 193.3 ± 110.1 U/L, the “HDL‐C” value turned out to be 0.604 ± 0.231 mmol/L and the “LDL‐C” value is on record as 0.054 ± 0.028^a mmol/L. Besides, in the data set with NASH mouse model (setting [4]), the TC is 0.719 ± 0.251 mmol/L and the TG is listed as 0.223 ± 0.106 mmol/L. Further, the IC50 at CYP 2C9 was over 10000 nM. Further, the “Safety in L02 cells” value with L02 cells is reported as “safer than GS‐4997”. In data set [1], the “T1/2 in liver microsomes” value is given as “>145 min”. In addition, in data set [2], the “T1/2 in liver microsomes” value is “>145 min”.
